From ChEMBL document CHEMBL1157989, “Novel antioxidant compounds from tart cherries (Prunus cerasus)” (J Nat Prod, 1999)
Active and inactive are the calls of the source. The rule behind the calls is not given here.

How the values were obtained:
[1] = Antioxidant activity against Fe2+-induced lipid peroxidation at 20 uM by fluorescence spectroscopy; format: functional
[2] = Antioxidant activity against Fe2+-induced lipid peroxidation at 100 uM by fluorescence spectroscopy; format: functional

CC(C)(C)c1cc(O)ccc1O
Activity [1]: > 90%

Cc1cc(C(C)(C)C)c(O)c(C(C)(C)C)c1
Activity [1]: > 90%

COC(=O)[C@]1(O)C[C@@H](O)[C@@H](O)[C@H](OC(=O)/C=C/c2ccc(O)c(O)c2)C1
Activity [1]: 50%

O=C(/C=C/c1ccc(O)c(O)c1)OC1[C@H](O)CC[C@@H]1O (stereo partly specified)
Activity [1]: 80%

O=C(O)C(O)Cc1ccccc1O (racemic)
Activity [2]: inactive

O=C(/C=C/c1ccc(O)c(O)c1)O[C@@H]1CC[C@@H](O)[C@H]1O
Activity [1]: 80%
